What all share (assay type): cell-based
One assay relates to clostridium perfringens. Description: microbe, parasite or virus in culture.
The next assay relates to riemerella anatipestifer. Description: Minimum inhibitory concentration in vitro, doubling dilutions.
The subject of another assay is vibrio. The description is as above.
The test system of a further assay is streptococcus. The description is as above.
Another assay relates to escherichia coli. The description is as above.
Another assay relates to salmonellas. The description is as above.
In the next assay the test system is haemophilus parasuis. The description is as above. As to conditions: Glaesserella parasuis.
[1] abbreviates: read-out: Minimum inhibitory concentration (MIC), Clostridium JM1210B.
Where [2] appears, read: read-out: Minimum inhibitory concentration (MIC), Clostridium JM1212A.
Where [3] appears, read: read-out: Minimum inhibitory concentration (MIC), Riemerella anatipestifer SCAU03.
Where [4] appears, read: strain WS, read-out: Minimum inhibitory concentration (MIC), Riemerella anatipestifer WS.
Where [5] appears, read: read-out: Minimum inhibitory concentration (MIC), Vibrio VP3.
Setting [6] is: read-out: Minimum inhibitory concentration (MIC), Vibrio VP5.
[7] abbreviates: strain KP1307-1, read-out: Minimum inhibitory concentration (MIC), Streptococcus KP1307-1.
Setting [8] is: strain TS1205-2, read-out: Minimum inhibitory concentration (MIC), Streptococcus TS1205-2.
The mark [9] stands for this setting: read-out: Minimum inhibitory concentration (MIC), Eserichia coli HZ1308-1.
Where [10] appears, read: read-out: Minimum inhibitory concentration (MIC), Eserichia coli SS1107A.
[11] abbreviates: strain FS1303B, read-out: Minimum inhibitory concentration (MIC), Salmonellas FS1303B.
[12] abbreviates: strain GD1303-3, read-out: Minimum inhibitory concentration (MIC), Salmonellas GD1303-3.
Setting [13] is: read-out: Minimum inhibitory concentration (MIC), Haemophilus parasuis S5A.
Setting [14] is: strain 2-3A, read-out: Minimum inhibitory concentration (MIC), Haemophilus parasuis 2-3A.
Setting [15] is: read-out: Minimum inhibitory concentration (MIC), Haemophilus parasuis 2-3A.

≈ marks a conversion by molar mass, not a printed value. Like-named read-outs stand apart in the source and are kept apart here. Bounds are passed on as bounds.

With `O=c1cccc(Cc2ccccc2)cc1O` [IST_009_004, 4-benzyl-2-hydroxycyclohepta-2,4,6-trienone], the MIC with clostridium perfringens (setting [1]) came to 12.5 µg/mL (≈ 58.9 µM); in the assay with clostridium perfringens (setting [2]) it was 12.5 µg/mL (≈ 58.9 µM); in the assay on riemerella anatipestifer (setting [3]) it was 12.5 µg/mL (≈ 58.9 µM); with riemerella anatipestifer (setting [4]), 6.25 µg/mL (≈ 29.4 µM); in the assay with vibrio (setting [5]) it was 50 µg/mL (≈ 236 µM); with vibrio (setting [6]), 50 µg/mL (≈ 236 µM). Further, the MIC in the assay with streptococcus (setting [7]) came to 6.25 µg/mL (≈ 29.4 µM); in the assay with streptococcus (setting [8]), 50 µg/mL (≈ 236 µM); in the assay on escherichia coli (setting [9]), 12.5 µg/mL (≈ 58.9 µM); in the assay with escherichia coli (setting [10]), 25 µg/mL (≈ 118 µM); in the assay with salmonellas (setting [11]), 25 µg/mL (≈ 118 µM); in the assay with salmonellas (setting [12]), 25 µg/mL (≈ 118 µM). Further, the MIC came out at 0.2 µg/mL (≈ 0.942 µM) in the assay with haemophilus parasuis (setting [13]) and 0.78 µg/mL (≈ 3.67 µM) in the assay with haemophilus parasuis (setting [14]).
`CCC(C)c1cccc(=O)c(O)c1` (stereo not drawn) [IST_009_008, 4-(sec-butyl)-2-hydroxycyclohepta-2,4,6-trienone]: the MIC was found to be 12.5 µg/mL (≈ 70.1 µM) in the assay on clostridium perfringens (setting [1]); 12.5 µg/mL (≈ 70.1 µM) with clostridium perfringens (setting [2]); 12.5 µg/mL (≈ 70.1 µM) in the assay with riemerella anatipestifer (setting [3]); 6.25 µg/mL (≈ 35.1 µM) with riemerella anatipestifer (setting [4]); 50 µg/mL (≈ 281 µM) with vibrio (setting [5]); 25 µg/mL (≈ 140 µM) in the assay on vibrio (setting [6]). For the same compound, the MIC in the assay with streptococcus (setting [7]) was 50 µg/mL (≈ 281 µM); in the assay on streptococcus (setting [8]), 50 µg/mL (≈ 281 µM); in the assay with escherichia coli (setting [9]), 25 µg/mL (≈ 140 µM); in the assay with escherichia coli (setting [10]) it was 25 µg/mL (≈ 140 µM); in the assay with salmonellas (setting [11]), 25 µg/mL (≈ 140 µM); with salmonellas (setting [12]), 25 µg/mL (≈ 140 µM). The MIC in the assay on haemophilus parasuis (setting [14]) was 0.39 µg/mL (≈ 2.19 µM).
For `CCc1cccc(=O)c(O)c1` [IST_009_018, 4-ethyl-2-hydroxycyclohepta-2,4,6-trienone], the MIC in the assay with clostridium perfringens (setting [1]) worked out at 3.13 µg/mL (≈ 20.8 µM); in the assay with clostridium perfringens (setting [2]), 3.13 µg/mL (≈ 20.8 µM); in the assay on riemerella anatipestifer (setting [3]), 12.5 µg/mL (≈ 83.2 µM); in the assay on riemerella anatipestifer (setting [4]) it was 6.25 µg/mL (≈ 41.6 µM); in the assay on vibrio (setting [5]), 25 µg/mL (≈ 166 µM); with vibrio (setting [6]), 25 µg/mL (≈ 166 µM). The MIC is 12.5 µg/mL (≈ 83.2 µM) with streptococcus (read-out: Minimum inhibitory concentration (MIC), Streptococcus KP1307-1); > 100 µg/mL in the assay with streptococcus (setting [8]); 25 µg/mL (≈ 166 µM) in the assay with escherichia coli (setting [9]); 50 µg/mL (≈ 333 µM) in the assay with escherichia coli (setting [10]); 12.5 µg/mL (≈ 83.2 µM) in the assay with salmonellas (setting [11]); 25 µg/mL (≈ 166 µM) in the assay with salmonellas (setting [12]). In addition, the MIC worked out at 3.13 µg/mL (≈ 20.8 µM) with haemophilus parasuis (setting [15]) and 1.56 µg/mL (≈ 10.4 µM) in the assay with haemophilus parasuis (setting [13]).
Consider `CCCCc1cccc(=O)c(O)c1` [IST_009_019, 4-butyl-2-hydroxycyclohepta-2,4,6-trienone], for which the MIC in the assay on clostridium perfringens (setting [1]) is 12.5 µg/mL (≈ 70.1 µM); in the assay on clostridium perfringens (setting [2]) it was 6.25 µg/mL (≈ 35.1 µM); in the assay on vibrio (setting [5]), 50 µg/mL (≈ 281 µM); in the assay with vibrio (setting [6]), 50 µg/mL (≈ 281 µM); in the assay with streptococcus (setting [7]), > 100 µg/mL; in the assay with streptococcus (setting [8]), 25 µg/mL (≈ 140 µM). The MIC was 25 µg/mL (≈ 140 µM) in the assay with escherichia coli (setting [9]); 25 µg/mL (≈ 140 µM) in the assay with escherichia coli (setting [10]); 25 µg/mL (≈ 140 µM) in the assay on salmonellas (setting [11]); 25 µg/mL (≈ 140 µM) in the assay with salmonellas (setting [12]); 0.2 µg/mL (≈ 1.12 µM) in the assay with haemophilus parasuis (setting [13]); 0.39 µg/mL (≈ 2.19 µM) in the assay with haemophilus parasuis (setting [14]).
For the compound `O=c1cccc(Cc2ccc(Cl)cc2)cc1O` [IST_009_025, 4-(4-chlorobenzyl)-2-hydroxycyclohepta-2,4,6-trienone], the MIC is > 100 µg/mL in the assay on vibrio (setting [5]), > 100 µg/mL in the assay on vibrio (setting [6]), 25 µg/mL (≈ 101 µM) in the assay with streptococcus (setting [7]) and 25 µg/mL (≈ 101 µM) with streptococcus (setting [8]).
As to `O=c1cccc(Cc2ccc(F)cc2)cc1O` [IST_009_028, 4-(4-fluorobenzyl)-2-hydroxycyclohepta-2,4,6-trienone], the MIC in the assay on vibrio (setting [5]) was determined as 100 µg/mL (≈ 434 µM); in the assay with vibrio (setting [6]), 100 µg/mL (≈ 434 µM); with streptococcus (setting [7]) it was 25 µg/mL (≈ 109 µM); in the assay with streptococcus (setting [8]) it was 25 µg/mL (≈ 109 µM).
Regarding `O=c1cccc(CCCF)cc1O` [IST_009_031, 4-(3-fluoropropyl)-2-hydroxycyclohepta-2,4,6-trienone], the MIC in the assay with clostridium perfringens (setting [1]) is 6.25 µg/mL (≈ 34.3 µM); with clostridium perfringens (setting [2]), 6.25 µg/mL (≈ 34.3 µM); with escherichia coli (setting [9]), 25 µg/mL (≈ 137 µM); in the assay with escherichia coli (setting [10]), 100 µg/mL (≈ 549 µM); in the assay with salmonellas (setting [11]), 50 µg/mL (≈ 274 µM); in the assay with salmonellas (setting [12]) it was 50 µg/mL (≈ 274 µM). For the same compound, the MIC is 6.25 µg/mL (≈ 34.3 µM) in the assay with haemophilus parasuis (setting [15]) and 3.13 µg/mL (≈ 17.2 µM) in the assay on haemophilus parasuis (setting [13]).

The values above are taken from patent publication US20160316790A1, “BETA-HINOKITIOL DERIVATIVES AND APPLICATIONS THEREOF IN PREPARATION OF ANIMAL ANTIBACTERIAL AGENTS AND ANTIBACTERIAL GROWTH PROMOTERS USED IN FEED” (GUANGZHOU INSIGHTER BIOTECHNOLOGY CO., LTD., priority 2013, published 2016).
